Data reported in US8183263B2 (priority 2007, dated 2012).

Tested on: HCV replicon
Assay: HCV replicon replication assay (NPT level by captured ELISA)
Type: cell-based
Conditions: Hepatitis C virus, 72 h; Huh-7 HCV replicon-containing cells, three days incubation; read-out: Activity (inhibition of HCV replicon replication)
Method: Compounds claimed herein are tested for the ability to inhibit viral replication of the Hepatitis C replicon in cultured cells in which the HCV replicon construct has been incorporated. The HCV replicon system was described by Bartenschlager, et. al (Science, 285, pp. 110-113 (1999)). The replicon system is predictive of in vivo anti-HCV activity; compounds that are active in humans uniformly evidence activity in the replicon assay.
In this assay HCV replicon containing cells are treated with different concentrations of the test compound to ascertain the ability of the test compound to suppress replication of the HCV replicon. As a positive control, HCV replicon-containing cells are treated with different concentrations of interferon alpha, a known inhibitor of HCV replication. The replicon assay system includes Neomycin Phosphotransferase (NPT) as a component of the replicon itself in order to detect the transcription of replicon gene products in the host cell. Cells in which the HCV replicon is actively replicating have high levels of NPT; the level of NPT is proportional to HCV replication. […] The NPT level of each sample is measured using a captured ELISA.
A protocol for testing compounds for the ability to inhibit viral replication of the Hepatitis C replicon cultured cells in which the replicon construct has been incorporated, follows.
The HCV replicon contains, 5′-3′, the HCV-IRES, the neomycin phosphotransferase (neo) gene, the IRES of encephalomyocarditis virus, which directs translation of HCV sequences NS3 to NS5B, and the 3′-NTR. The sequence of the HCV replicon has been deposited in GenBank (Accession no. AJ242652).
The replicon is transfected into Huh-7 cells using standard methods such as electroporation.
The equipment and materials include, but are not limited to, Huh-7 HCV replicon-containing cells, maintenance media (DMEM (Dulbecco's modified Eagle media) supplemented with 10% FBS, L-glutamine, non-essential amino acids, penicillin (100 units/ml), streptomycin (100 micrograms/ml), and 500 micrograms/ml of Geneticin (G418), screening media (DMEM supplemented with 10% FBS, L-glutamine, non-essential amino acids, penicillin (100 units/ml) and streptomycin (100 micrograms/ml)), 96 well tissue culture plates (flat bottom), 96 well plates (U bottom for drug dilution), Interferon alpha for positive control, fixation reagent (such as methanol: acetone), primary antibody (rabbit anti-NPTII), secondary antibody: Eu—N1 1, and enhancement solution.
HCV replicon-containing cells are rinsed with once PBS once; 2 mls of trypsin are then added. Cells are incubated at 37° C. in a 5% CO2 incubator for 3-5 minutes. 10 mls of complete medium is added to stop the reaction. Cells are blown gently, put into a 15 ml tube, and spun at 1200 rpm for four minutes. The trypsin/medium solution is removed and 5 mls of medium (500 ml DMEM (high glucose)) from BRL catalog #12430-054; 50 mls 10% FBS, 5% Geneticin G418 (50 mg/ml, BRL catalog #10131-035), 5 ml MEM non-essential amino acids (100×BRL #11140-050) and 5 ml pen-strep (BRL #15140-148) is added. The cells and media are mixed carefully
Cells are plated with screening medium (500 ml DMEM (BRL #21063-029), 50 ml FBS (BRL #10082-147) and 5 ml MEM non-essential amino acid (BRL #11140-050) at 6000-7500 cells/100 μl/well of 96 well plate (6-7.5×10^5 cells/10 ml/plate). Plates are placed into 37° C. 5% CO2 incubator overnight.
The following morning, drugs (test compounds or interferon alpha) are diluted in 96 well U bottom plates with media or DMSO/media, depending on the final concentration chosen for screening. Generally for 6 concentrations of each test compounds ranging from 10 micromolar to 0.03 micromolar are applied. 100 μl of the test compound dilution is placed in wells of the 96 well plate containing the HCV replicon cells. Media without drug is added to some wells as a negative controls. DMSO is known to affect cell growth. […]

`CCc1ccc(Oc2ccc(Nc3nc(-c4cccnc4)cs3)cc2C(C)=O)cc1` and `CCc1ccc(Oc2ccc(Nc3nc(-c4cccnc4)cs3)cc2C(F)(F)F)cc1` [Cmp 49, N-(4-(4-ethylphenoxy)-3-(trifluoromethyl)phenyl)-4-(pyridin-3-yl)thiazol-2-amine] cannot be ordered by EC50: less than 1000 nM for the first, less than 1000 nM for the second.

First: CCCCCCCS(=O)(=O)CCc1ccc(Nc2nc(-c3cccnc3)cs2)cc1 [Cmp 20, N-(4-(2-(heptylsulfonyl)ethyl)phenyl)-4-(pyridin-3-yl)thiazol-2-amine]
Second: CCCCCCCCc1ccc(Nc2nc(-c3cccnc3)c(F)s2)cc1 [Cmp 31, 5-fluoro-N-(4-octylphenyl)-4-(pyridin-3-yl)thiazol-2-amine]
The EC50 of the first is higher: 1000 to 10000 nM for the first, less than 1000 nM for the second.

`FC(F)(F)c1cc(Nc2nc(-c3cccnc3)cs2)ccc1OCCCCCc1ccccc1` [Cmp 21] and `Cc1ccccc1CCCCOc1ccc(Nc2nc(-c3cccnc3)cs2)cc1C(F)(F)F` [Cmp 22, 4-(pyridin-3-yl)-N-(4-(4-o-tolylbutoxy)-3-(trifluoromethyl)phenyl)thiazol-2-amine] cannot be ordered by EC50: less than 1000 nM for the first, less than 1000 nM for the second.

`FC(F)(F)c1cc(Nc2nc(-c3cccnc3)cs2)ccc1OCCCCc1ccc(Cl)cc1` [Cmp 23, N-(4-(4-(4-chlorophenyl)butoxy)-3-(trifluoromethyl)phenyl)-4-(pyridin-3-yl)thiazol-2-amine] and `FC(F)(F)c1cc(Nc2nc(-c3cccnc3)cs2)ccc1Oc1ccc(Cl)cc1` [Cmp 50, N-(4-(4-chlorophenoxy)-3-(trifluoromethyl)phenyl)-4-(pyridin-3-yl)thiazol-2-amine] cannot be ordered by EC50: less than 1000 nM for the first, less than 1000 nM for the second.

`Fc1ccc(C#CCCOc2ccc(Nc3nc(-c4cccnc4)cs3)cc2C(F)(F)F)cc1` [Cmp 24, N-(4-(4-(4-fluorophenyl)but-3-ynyloxy)-3-(trifluoromethyl)phenyl)-4-(pyridin-3-yl)thiazol-2-amine] and `N#Cc1ccc(Oc2ccc(Nc3nc(-c4cccnc4)cs3)cc2C(F)(F)F)cc1` [Cmp 48, 4-(4-(4-(pyridin-3-yl)thiazol-2-ylamino)-2-(trifluoromethyl)phenoxy)benzonitrile] cannot be ordered by EC50: less than 1000 nM for the first, less than 1000 nM for the second.

`CCCCCCCCOc1cc(Nc2nc(-c3cccnc3)cs2)ccc1C` [Cmp 25, N-(4-methyl-3-(octyloxy)phenyl)-4-(pyridin-3-yl)thiazol-2-amine] and `CCCCCOc1cc(Nc2nc(-c3cccnc3)cs2)ccc1C` [Cmp 26, N-(4-methyl-3-(pentyloxy)phenyl)-4-(pyridin-3-yl)thiazol-2-amine] cannot be ordered by EC50: less than 1000 nM for the first, less than 1000 nM for the second.

`CCCCCOc1cc(Nc2nc(-c3cccnc3)cs2)ccc1C#N` [Cmp 27, 2-(pentyloxy)-4-(4-(pyridin-3-yl)thiazol-2-ylamino)benzonitrile] and `CCCCCOc1cc(Nc2nc(-c3cccnc3)c(F)s2)ccc1C#N` [Cmp 30, -(5-fluoro-4-(pyridin-3-yl)thiazol-2-ylamino)-2-(pentyloxy)benzonitrile] cannot be ordered by EC50: less than 1000 nM for the first, less than 1000 nM for the second.

`CCCCCCCCOc1cc(Nc2nc(-c3cccnc3)c(F)s2)ccc1C` [Cmp 28, 5-fluoro-N-(4-methyl-3-(octyloxy)phenyl)-4-(pyridin-3-yl)thiazol-2-amine] and `CCCCCOc1cc(Nc2nc(-c3cccnc3)c(F)s2)ccc1C` [Cmp 29] cannot be ordered by EC50: less than 1000 nM for the first, less than 1000 nM for the second.

`CC/C=N/N(c1ccc(OCCCCCCCC)cc1)c1nc(-c2cccnc2)cs1` [Cmp 32, (E)-2-(1-(4-(octyloxy)phenyl)-2-propylidenehydrazinyl)-4-(pyridin-3-yl)thiazole] and `C/C=N/N(c1ccc(OCCCCCCCC)cc1)c1nc(-c2cccnc2)cs1` [Cmp 34, (E)-2-(2-ethylidene-1-(4-(octyloxy)phenyl)hydrazinyl)-4-(pyridin-3-yl)thiazole] cannot be ordered by EC50: less than 1000 nM for the first, less than 1000 nM for the second.

`C/C=N/N(c1ccc(OCCCCCCCC)c(C(F)(F)F)c1)c1nc(-c2cccnc2)cs1` [Cmp 33, (E)-2-(2-ethylidene-1-(4-(octyloxy)-3-(trifluoromethyl)phenyl)hydrazinyl)-4-(pyridin-3-yl)thiazole] and `CCCCCCCCOc1ccc(N(N)c2nc(-c3cccnc3)cs2)cc1C(F)(F)F` [Cmp 44, 2-(1-(4-(octyloxy)-3-(trifluoromethyl)phenyl)hydrazinyl)-4-(pyridin-3-yl)thiazolo] cannot be ordered by EC50: less than 1000 nM for the first, less than 1000 nM for the second.

`CCCCCCCCc1ccc(Nc2nc(-c3cccnc3)c(F)s2)cc1C(F)(F)F` [Cmp 35, 5-fluoro-N-(4-octyl-3-(trifluoromethyl)phenyl)-4-(pyridin-3-yl)thiazol-2-amine] and `CCCCCCCCc1ccc(Nc2nc(-c3cnc(OC)nc3)c(F)s2)cc1C(F)(F)F` [Cmp 36, 5-fluoro-4-(2-methoxypyrimidin-5-yl)-N-(4-octyl-3-(trifluoromethyl)phenyl)thiazol-2-amine] cannot be ordered by EC50: less than 1000 nM for the first, less than 1000 nM for the second.

`Cc1ccc(Nc2nc(-c3cccnc3)cs2)cc1OCCOc1ccccc1` [Cmp 37, N-(4-methyl-3-(2-phenoxyethoxy)phenyl)-4-(pyridin-3-yl)thiazol-2-amine] and `Cc1ccc(Nc2nc(-c3ccc(F)cc3)cs2)cc1OCCOc1ccccc1` [Cmp 41] cannot be ordered by EC50: less than 1000 nM for the first, less than 1000 nM for the second.

`Cc1ccc(Nc2nc(-c3cccnc3)cs2)cc1OCC1CCCCC1` [Cmp 38, N-(3-(cyclohexylmethoxy)-4-methylphenyl)-4-(pyridin-3-yl)thiazol-2-amine] and `Cc1ccc(Nc2nc(-c3ccc(F)cc3)cs2)cc1OCC1CCCCC1` [Cmp 42, N-(3-(cyclohexylmethoxy)-4-methylphenyl)-4-(4-fluorophenyl)thiazol-2-amine] cannot be ordered by EC50: less than 1000 nM for the first, less than 1000 nM for the second.

`CCCCCCCCc1ccc(Nc2nc(-c3ccc[n+](O)c3)c(F)s2)cc1` [Cmp 39, 5-fluoro-N-(4-octylphenyl)-4-(pyridine-1-oxide-3-yl)thiazol-2-amine] and `CCCCCCCCOc1cc(Nc2nc(-c3ccc(F)cc3)cs2)ccc1C` [Cmp 45, 4-(4-fluorophenyl)-N-(4-methyl-3-(octyloxy)phenyl)thiazol-2-amine] cannot be ordered by EC50: less than 1000 nM for the first, less than 1000 nM for the second.

`COc1ncc(-c2csc(Nc3ccc(C)c(OCCOc4ccccc4)c3)n2)cn1` [Cmp 40, 4-(2-methoxypyrimidin-5-yl)-N-(4-methyl-3-(2-phenoxyethoxy)phenyl)thiazol-2-amine] and `COc1ncc(-c2csc(Nc3ccc(Oc4ccccc4)c(C(F)(F)F)c3)n2)cn1` [Cmp 51, 4-(2-methoxypyrimidin-5-yl)-N-(4-phenoxy-3-(trifluoromethyl)phenyl)thiazol-2-amine] cannot be ordered by EC50: less than 1000 nM for the first, less than 1000 nM for the second.

`COc1ncc(-c2csc(Nc3ccc(C)c(OCC4CCCCC4)c3)n2)cn1` [Cmp 43, N-(3-(cyclohexylmethoxy)-4-methylphenyl)-4-(2-methoxypyrimidin-5-yl)thiazol-2-amine] and `CCCCCCCCOc1cc(Nc2nc(-c3cnc(OC)nc3)cs2)ccc1C` [Cmp 46, 4-(2-methoxypyrimidin-5-yl)-N-(4-methyl-3-(octyloxy)phenyl)thiazol-2-amine] cannot be ordered by EC50: less than 1000 nM for the first, less than 1000 nM for the second.

`FC(F)(F)c1cc(Nc2nc(-c3cccnc3)cs2)ccc1Oc1ccccc1` [Cmp 47, N-(4-phenoxy-3-(trifluoromethyl)phenyl)-4-(pyridin-3-yl)thiazol-2-amine] and `COc1ncc(-c2csc(Nc3ccc(Oc4ccc(C#N)cc4)c(C(F)(F)F)c3)n2)cn1` [Cmp 52, 4-(4-(4-(2-methoxypyrimidin-5-yl)thiazol-2-ylamino)-2-(trifluoromethyl)phenoxy)benzonitrile] cannot be ordered by EC50: less than 1000 nM for the first, less than 1000 nM for the second.

In the case of `CCc1ccc(Oc2ccc(Nc3nc(-c4cnc(OC)nc4)cs3)cc2C(F)(F)F)cc1` [Cmp 53, N-(4-(4-ethylphenoxy)-3-(trifluoromethyl)phenyl)-4-(2-methoxypyrimidin-5-yl)thiazol-2-amine], the EC50 is reported as less than 1000 nM.
